Here are results for 6 molecules from patent US20210115104A1, “AMYLIN ANALOGUES” (Zealand Pharma A/S, priority 2015, published 2021).

The target of assay [1] is T1, human amylin receptor 3 (hAMYR3), hCTR2 co-expressed with hRAMP3 (Homo sapiens, UniProt O60896+P30988).
T1 construct: expressed in transfected cells
T1 sequence (P30988 25-474): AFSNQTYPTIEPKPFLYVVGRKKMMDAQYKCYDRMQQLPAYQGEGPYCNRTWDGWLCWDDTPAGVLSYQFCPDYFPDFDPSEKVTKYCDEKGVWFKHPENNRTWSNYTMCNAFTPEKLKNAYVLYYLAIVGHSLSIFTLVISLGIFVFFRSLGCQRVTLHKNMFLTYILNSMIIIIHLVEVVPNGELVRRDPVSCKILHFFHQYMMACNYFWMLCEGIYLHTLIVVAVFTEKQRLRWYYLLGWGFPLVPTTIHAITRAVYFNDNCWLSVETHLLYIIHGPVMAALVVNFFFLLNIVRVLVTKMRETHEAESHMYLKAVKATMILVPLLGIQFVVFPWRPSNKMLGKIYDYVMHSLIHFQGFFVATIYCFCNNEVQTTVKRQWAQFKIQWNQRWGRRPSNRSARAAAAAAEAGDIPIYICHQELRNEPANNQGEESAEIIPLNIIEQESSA
T1 sequence (O60896 24-148 partner): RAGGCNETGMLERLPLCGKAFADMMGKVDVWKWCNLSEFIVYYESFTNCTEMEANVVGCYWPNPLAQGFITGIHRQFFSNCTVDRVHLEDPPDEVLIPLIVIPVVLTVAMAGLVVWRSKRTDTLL
In words: hAMYR3 cAMP assay (AlphaScreen) in COS7 cells. The settings on record: cAMP induction, COS7 cells expressing hAMYR3; Table 1; read-out: hAMYR3 EC50. The assay is classed as cell-based. An outline of the steps:
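Stable COS7 clone co-expressing hCTR2 and hRAMP3 was exposed to increasing peptide concentrations in Tyrode buffer (pH 7.4) with 100 µM IBMX and 0.1% casein for 15 min at 37 °C. Lysate cAMP was measured by AlphaScreen; EC50 came from 4-parameter logistic fitting.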

Assay [2] deals with T2, human calcitonin receptor (hCTR2) (Homo sapiens, UniProt P30988).
T2 construct: expressed in transfected cells
T2 sequence (P30988 25-474): T1 sequence (P30988 25-474)
Briefly: hCTR2 cAMP assay (AlphaScreen) in COS7 cells. It is filed as cell-based. The settings on record: cAMP induction, COS7 cells expressing hCTR2; Table 1; read-out: hCTR2 EC50. An outline of the steps:
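Stable hCTR2 clone in RAMP-naïve COS7 cells stimulated 15 min at 37 °C with increasing peptide concentrations in Tyrode buffer pH 7.4 containing IBMX and 0.1% casein. cAMP in lysates measured by AlphaScreen; EC50 from 4-parameter logistic fit.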

pEC50: −log10 of the molar value. *1 amine or outer side, *2 acyl side, *3 side chain or, on linkers, in order; H or OH if unused. Where a SMILES comes first, the peptide text is derived from it. Bridges are numbered along the chain shown (N, C = ends). [ ]: non-standard residue; d: D form. The star is where a group is joined. C20 diacid = O=C(O)CCCCCCCCCCCCCCCCCCC(=O)*; γGlu = O=C(O)[C@H](CCC(=O)[*:2])N[*:1]; Hyp = O=C(O)[C@@H]1C[C@@H](O)CN1; NMeI = CC[C@H](C)[C@H](NC)C(=O)O; Aad = N[C@@H](CCCC(=O)O)C(=O)O; Sar = CNCC(=O)O

For `CC[C@H](C)[C@@H](C(=O)N[C@@H](CC(C)C)C(=O)N[C@@H](CO)C(=O)N[C@@H](CO)C(=O)N[C@H](C(=O)N[C@@H](CCC(=O)O)C(=O)N[C@H](C(=O)NCC(=O)N[C@@H](CO)C(=O)N[C@@H](CC(N)=O)C(=O)N[C@H](C(=O)N1C[C@H](O)C[C@H]1C(N)=O)[C@@H](C)O)C(C)C)[C@@H](C)O)N(C)C(=O)[C@H](C)NC(=O)CN(C)C(=O)[C@H](Cc1ccccc1)NC(=O)[C@H](CO)NC(=O)[C@H](CO)NC(=O)[C@H](CCCNC(=N)N)NC(=O)[C@H](CCC(N)=O)NC(=O)[C@H](CC(C)C)NC(=O)[C@H](Cc1ccccc1)NC(=O)[C@H](CC(=O)O)NC(=O)[C@H](C)NC(=O)[C@H](CC(C)C)NC(=O)[C@H](CCCNC(=N)N)NC(=O)[C@H](CCC(=O)O)NC(=O)[C@@H](NC(=O)[C@H](C)NC(=O)[C@@H]1CSSC[C@H](NC(=O)[C@H](CCCNC(=N)N)NC(=O)CC[C@H](NC(=O)CCCCCCCCCCCCCCCCCCC(=O)O)C(=O)O)C(=O)N[C@@H](CC(N)=O)C(=O)N[C@@H]([C@@H](C)O)C(=O)N[C@@H](C)C(=O)N[C@@H]([C@@H](C)O)C(=O)N1)[C@@H](C)O` [Compound 68, [19CD]-isoGlu-R-C( )-NTAT-C( )-ATERLADFLQRSSF-Gly(Me)-A-Ile(Me)-LSSTEVGSNT-Hyp-NH2] ({C20 diacid-γGlu}-RCNTATCATERLADFLQRSSF[Sar]A[NMeI]LSSTEVGSNT[Hyp]-NH2; disulfide 2-7), the negative-log EC50 (pEC50) in assay [1] was 9.54; in assay [2], 9.49.

With `CC[C@H](C)[C@@H](C(=O)N[C@@H](CC(C)C)C(=O)N[C@@H](CO)C(=O)N[C@@H](CO)C(=O)N[C@H](C(=O)N[C@@H](CCC(=O)O)C(=O)N[C@H](C(=O)NCC(=O)N[C@@H](CO)C(=O)N[C@@H](CO)C(=O)N[C@H](C(=O)N1C[C@H](O)C[C@H]1C(N)=O)[C@@H](C)O)C(C)C)[C@@H](C)O)N(C)C(=O)[C@H](C)NC(=O)CN(C)C(=O)[C@H](Cc1ccccc1)NC(=O)[C@H](CO)NC(=O)[C@H](CO)NC(=O)[C@H](CCCNC(=N)N)NC(=O)[C@H](CCC(N)=O)NC(=O)[C@H](CC(C)C)NC(=O)[C@H](Cc1ccccc1)NC(=O)[C@H](Cc1c[nH]cn1)NC(=O)[C@H](C)NC(=O)[C@H](CC(C)C)NC(=O)[C@H](CCCNC(=N)N)NC(=O)[C@H](CCC(=O)O)NC(=O)[C@@H](NC(=O)[C@H](C)NC(=O)[C@@H]1CSSC[C@H](NC(=O)[C@H](CCCNC(=N)N)NC(=O)CC[C@H](NC(=O)CCCCCCCCCCCCCCCCCCC(=O)O)C(=O)O)C(=O)N2CCC[C@H]2C(=O)N[C@@H]([C@@H](C)O)C(=O)N[C@@H](C)C(=O)N[C@@H]([C@@H](C)O)C(=O)N1)[C@@H](C)O` [Compound 70, [19CD]-isoGlu-R-C( )-PTAT-C( )-ATERLAHFLQRSSF-Gly(Me)-A-Ile(Me)-LSSTEVGSST-Hyp-NH2] ({C20 diacid-γGlu}-RCPTATCATERLAHFLQRSSF[Sar]A[NMeI]LSSTEVGSST[Hyp]-NH2; disulfide 2-7), the negative-log EC50 (pEC50) in assay [1] was 9.44; in assay [2], 9.46.

Take `CC[C@H](C)[C@@H](C(=O)N[C@@H](CC(C)C)C(=O)N[C@@H](CO)C(=O)N[C@@H](CO)C(=O)N[C@H](C(=O)N[C@@H](CCC(=O)O)C(=O)N[C@H](C(=O)NCC(=O)N[C@@H](CO)C(=O)NCC(=O)N[C@H](C(=O)N1C[C@H](O)C[C@H]1C(N)=O)[C@@H](C)O)C(C)C)[C@@H](C)O)N(C)C(=O)[C@H](C)NC(=O)CN(C)C(=O)[C@H](Cc1ccccc1)NC(=O)[C@H](CO)NC(=O)[C@H](CO)NC(=O)[C@H](CCCNC(=N)N)NC(=O)[C@H](CCC(N)=O)NC(=O)[C@H](CC(C)C)NC(=O)[C@H](Cc1ccccc1)NC(=O)[C@H](Cc1c[nH]cn1)NC(=O)[C@H](C)NC(=O)[C@H](CC(C)C)NC(=O)[C@H](CCCNC(=N)N)NC(=O)[C@H](CCC(=O)O)NC(=O)[C@@H](NC(=O)[C@H](C)NC(=O)[C@@H]1CSSC[C@H](NC(=O)[C@H](CCCNC(=N)N)NC(=O)CC[C@H](NC(=O)CCCCCCCCCCCCCCCCCCC(=O)O)C(=O)O)C(=O)N2CCC[C@H]2C(=O)N[C@@H]([C@@H](C)O)C(=O)N[C@@H](C)C(=O)N[C@@H]([C@@H](C)O)C(=O)N1)[C@@H](C)O` [Compound 72, [19CD]-isoGlu-R-C( )-PTAT-C( )-ATERLAHFLQRSSF-Gly(Me)-A-Ile(Me)-LSSTEVGSGT-Hyp-NH2] ({C20 diacid-γGlu}-RCPTATCATERLAHFLQRSSF[Sar]A[NMeI]LSSTEVGSGT[Hyp]-NH2; disulfide 2-7): the pEC50 in assay [1] was 9.57; in assay [2], 9.46.

As to `CC[C@H](C)[C@@H](C(=O)N[C@@H](CC(C)C)C(=O)N[C@@H](CO)C(=O)N[C@@H](CO)C(=O)N[C@H](C(=O)N[C@@H](CCC(=O)O)C(=O)N[C@H](C(=O)NCC(=O)N[C@@H](CO)C(=O)N[C@H](C(=O)N[C@H](C(=O)N1C[C@H](O)C[C@H]1C(N)=O)[C@@H](C)O)[C@@H](C)O)C(C)C)[C@@H](C)O)N(C)C(=O)[C@H](C)NC(=O)CN(C)C(=O)[C@H](Cc1ccccc1)NC(=O)[C@H](CO)NC(=O)[C@H](CO)NC(=O)[C@H](CCCNC(=N)N)NC(=O)[C@H](CCC(N)=O)NC(=O)[C@H](CC(C)C)NC(=O)[C@H](Cc1ccccc1)NC(=O)[C@H](Cc1c[nH]cn1)NC(=O)[C@H](C)NC(=O)[C@H](CC(C)C)NC(=O)[C@H](CCCNC(=N)N)NC(=O)[C@H](CCC(N)=O)NC(=O)[C@@H](NC(=O)[C@H](C)NC(=O)[C@@H]1CSSC[C@H](NC(=O)[C@H](CCCNC(=N)N)NC(=O)CC[C@H](NC(=O)CCCCCCCCCCCCCCCCCCC(=O)O)C(=O)O)C(=O)N[C@@H](CC(N)=O)C(=O)N[C@@H]([C@@H](C)O)C(=O)N[C@@H](C)C(=O)N[C@@H]([C@@H](C)O)C(=O)N1)[C@@H](C)O` [Compound 73, [19CD]-isoGlu-R-C( )-NTAT-C( )-ATQRLAHFLQRSSF-Gly(Me)-A-Ile(Me)-LSSTEVGSTT-Hyp-NH2] ({C20 diacid-γGlu}-RCNTATCATQRLAHFLQRSSF[Sar]A[NMeI]LSSTEVGSTT[Hyp]-NH2; disulfide 2-7), the negative-log EC50 (pEC50) in assay [1] was 9.62; in assay [2], 9.92.

Consider `CC[C@H](C)[C@@H](C(=O)N[C@@H](CC(C)C)C(=O)N[C@@H](CO)C(=O)N[C@@H](CO)C(=O)N[C@H](C(=O)N[C@@H](CCC(=O)O)C(=O)N[C@H](C(=O)NCC(=O)N[C@@H](CO)C(=O)N[C@@H](CCCC(=O)O)C(=O)N[C@H](C(=O)N1C[C@H](O)C[C@H]1C(N)=O)[C@@H](C)O)C(C)C)[C@@H](C)O)N(C)C(=O)[C@H](C)NC(=O)CN(C)C(=O)[C@H](Cc1ccccc1)NC(=O)[C@H](CO)NC(=O)[C@H](CO)NC(=O)[C@H](CCCNC(=N)N)NC(=O)[C@H](CCC(N)=O)NC(=O)[C@H](CC(C)C)NC(=O)[C@H](Cc1ccccc1)NC(=O)[C@H](Cc1c[nH]cn1)NC(=O)[C@H](C)NC(=O)[C@H](CC(C)C)NC(=O)[C@H](CCCNC(=N)N)NC(=O)[C@H](CCC(N)=O)NC(=O)[C@@H](NC(=O)[C@H](C)NC(=O)[C@@H]1CSSC[C@H](NC(=O)[C@H](CCCNC(=N)N)NC(=O)CC[C@H](NC(=O)CCCCCCCCCCCCCCCCCCC(=O)O)C(=O)O)C(=O)N[C@@H](CC(N)=O)C(=O)N[C@@H]([C@@H](C)O)C(=O)N[C@@H](C)C(=O)N[C@@H]([C@@H](C)O)C(=O)N1)[C@@H](C)O` [Compound 75, [19CD]-isoGlu-R-C( )-NTAT-C( )-ATQRLAHFLQRSSF-Gly(Me)-A-Ile(Me)-LSSTEVGS-Aad-T-Hyp-NH2] ({C20 diacid-γGlu}-RCNTATCATQRLAHFLQRSSF[Sar]A[NMeI]LSSTEVGS[Aad]T[Hyp]-NH2; disulfide 2-7), for which the pEC50 was 9.59 in assay [1] and 9.44 in assay [2].

For the molecule `CC[C@H](C)[C@@H](C(=O)N[C@@H](CC(C)C)C(=O)N[C@@H](CO)C(=O)N[C@@H](CO)C(=O)N[C@H](C(=O)N[C@@H](CCC(=O)O)C(=O)N[C@H](C(=O)NCC(=O)N[C@@H](CO)C(=O)N[C@@H](CC(N)=O)C(=O)N[C@H](C(=O)N1CCC[C@H]1C(N)=O)[C@@H](C)O)C(C)C)[C@@H](C)O)N(C)C(=O)[C@H](C)NC(=O)CN(C)C(=O)[C@H](Cc1ccccc1)NC(=O)[C@H](CO)NC(=O)[C@H](CO)NC(=O)[C@H](CCCNC(=N)N)NC(=O)[C@H](CCC(N)=O)NC(=O)[C@H](CC(C)C)NC(=O)[C@H](Cc1ccccc1)NC(=O)[C@H](Cc1c[nH]cn1)NC(=O)[C@H](C)NC(=O)[C@H](CC(C)C)NC(=O)[C@H](CCCNC(=N)N)NC(=O)[C@H](CCC(=O)O)NC(=O)[C@@H](NC(=O)[C@H](C)NC(=O)[C@@H]1CSSC[C@H](NC(=O)[C@H](CCCNC(=N)N)NC(=O)CC[C@H](NC(=O)CCCCCCCCCCCCCCCCCCC(=O)O)C(=O)O)C(=O)NCC(=O)N[C@@H]([C@@H](C)O)C(=O)N[C@@H](C)C(=O)N[C@@H]([C@@H](C)O)C(=O)N1)[C@@H](C)O` [Compound 78, [19CD]-isoGlu-R-C( )-GTAT-C( )-ATERLAHFLQRSSF-Gly(Me)-A-Ile(Me)-LSSTEVGSNTP-NH2] ({C20 diacid-γGlu}-RCGTATCATERLAHFLQRSSF[Sar]A[NMeI]LSSTEVGSNTP-NH2; disulfide 2-7), the results for the negative-log EC50 (pEC50) in assay [1] and in assay [2] were 9.62 and 9.82, respectively.
